Values after ≈ are worked out from the molar mass of the structure shown. Where two headings read alike, the source gives them in different places.
Legend:
[1] = tested on: drug-sensitive cell lines of Table 2 (EFM-19, MDA-MB-453, T-47D, ZR-75-1, NCI-H441, OVTOKO, NCI-H1838); test: Cell Line Growth Retardation Assay, sensitive cohort; format: cell-based, human; conditions: for IC50: Homo sapiens, geometric mean over sensitive cohort, 6 days growth, read-out: AvgSensIC50; for Ther Window: average IC50 drug-resistant group divided by average IC50 drug-sensitive group
Protocol: (§1) Cells were seeded at densities of 1,000-5,000 cells per well in 48-well tissue culture plates. After a 24 hours rest period, cells were treated with compound at 10 μM, 2 μM, 0.4 μM, 0.08 μM, 0.016 μM, and 0.0032 μM. A group of cells were treated with the vehicle in which the compound was prepared and served as a control. The cells were grown in the presence of compounds for 6 days and were counted on day 0 and day 6. A11 cell counting was performed using a Synentec Cellavista plate imager. […] Growth inhibition was calculated as a ratio of cell population doublings in the presence of compound versus the absence of compound. […] IC50 values for each compound (see Table 3; reported in μM) were calculated by fitting curves to data points from each dose-response assay using the Proc NLIN function in SAS for Windows version 9.2 (SAS Institute, Inc.).
(§2) These sensitive and resistant cohorts were interrogated for response to each compound, and IC50s were calculated for each cell line using the same technique described above. Average IC50s for the sensitive and resistant cohorts were calculated as geometric means of the group. “Therapeutic Window” for each compound was calculated by dividing the average IC50 for the drug-resistant group by the average IC50 for the drug-sensitive group.

[2] = tested on: drug-resistant cell lines of Table 2 (NCI-H1437, OV207, HCC1806, NCI-H2172); test: Cell Line Growth Retardation Assay, resistant cohort; format: cell-based, human; conditions: Homo sapiens, […], geometric mean over resistant cohort; 6 days growth; read-out: AvgResIC50
Protocol: as §1, §2

[3] = Measurement of Compound Metabolic Stability in hepatocytes
[4] = molecular target: CDK4 (Homo sapiens (Human), UniProt P11802); test: Cdk4 and 6 Enzymatic Inhibition Assay (radiometric 33PanQinase, Ki determination); format: biochemical
Chain of CDK4 (P11802 whole entry): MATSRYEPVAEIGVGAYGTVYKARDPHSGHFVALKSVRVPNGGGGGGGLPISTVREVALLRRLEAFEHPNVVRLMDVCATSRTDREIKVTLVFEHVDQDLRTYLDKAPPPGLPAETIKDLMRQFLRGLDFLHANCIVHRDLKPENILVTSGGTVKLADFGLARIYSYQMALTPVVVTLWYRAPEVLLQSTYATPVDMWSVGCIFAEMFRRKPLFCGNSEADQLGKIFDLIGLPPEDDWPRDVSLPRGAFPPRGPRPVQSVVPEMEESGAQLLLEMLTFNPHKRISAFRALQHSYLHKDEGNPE
Chain of CDK4 (P24385 whole entry partner): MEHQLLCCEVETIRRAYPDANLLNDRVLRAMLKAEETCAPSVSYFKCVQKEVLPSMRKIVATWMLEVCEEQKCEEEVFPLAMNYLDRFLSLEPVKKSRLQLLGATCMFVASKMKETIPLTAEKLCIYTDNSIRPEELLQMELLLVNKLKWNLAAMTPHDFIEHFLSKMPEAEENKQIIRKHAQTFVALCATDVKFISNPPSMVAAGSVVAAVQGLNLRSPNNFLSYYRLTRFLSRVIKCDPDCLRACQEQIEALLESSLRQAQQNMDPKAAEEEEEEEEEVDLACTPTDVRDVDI
Protocol: (§3) 10 distinct concentrations were prepared, with a dilution endpoint of 6×10^−9 M in 100% DMSO. 100% DMSO was used as a control. 10 μL from each of the serial dilutions were aliquoted into separate wells of a 96-well plate and 90 μL of water were added to each of those wells. The plate was shaken thoroughly, and 5 μL from each of the plate's wells were transferred into wells of the assay plate. The final volume of wells in the assay plate was 50 μL. A11 compounds were tested at 10 assay concentrations in the range from 2×10^−6 M to 6×10^−11 M. The final DMSO concentration in the wells of the assay plate was 1% in all cases.
(§4) A radiometric protein kinase assay (33PanQinase® Activity Assay) was used for measuring the kinase activity of six protein kinases. A11 kinase assays were performed in 96-well FlashPlates™ from PerkinElmer (Boston, MA, USA). The assay for all protein kinases contained 70 mM HEPES-NaOH pH 7.5, 3 mM MgCl2, 3 mM MnCl2, 3 μM Na-orthovanadate, 1.2 mM DTT, 50 μg/mL PEG20000, ATP [γ-33P]-ATP (approx. 9×1005 cpm per well), protein kinase and substrate. The reaction cocktails were incubated at 30° C. for 60 minutes. The reaction was stopped with 50 μL of 2% (v/v) H3PO4, and plates were aspirated and washed two times with 200 μL 0.9% (w/v) NaCl. Incorporation of ^33Pi was determined with a microplate scintillation counter (Microbeta, Wallac).

[5] = molecular target: CDK6 (Homo sapiens (Human), UniProt Q00534); test: as above; format: biochemical
Chain of CDK6 (Q00534 whole entry): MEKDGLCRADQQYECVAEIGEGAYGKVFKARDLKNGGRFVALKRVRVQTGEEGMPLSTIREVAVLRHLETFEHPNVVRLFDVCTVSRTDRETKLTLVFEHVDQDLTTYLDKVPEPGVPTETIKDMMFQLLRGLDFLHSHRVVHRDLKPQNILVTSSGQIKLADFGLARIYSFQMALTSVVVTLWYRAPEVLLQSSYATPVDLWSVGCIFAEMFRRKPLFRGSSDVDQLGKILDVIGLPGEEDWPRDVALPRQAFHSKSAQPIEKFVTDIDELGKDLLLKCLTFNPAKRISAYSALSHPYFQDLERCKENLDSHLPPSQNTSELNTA
Chain of CDK6 (P24385 whole entry partner): as the sequence (P24385 whole entry partner) above
Protocol: as §3, §4

[6] = Caco-2 Assay (Papp A to B); conditions: human, Caco-2, pH 7.4
[7] = tested on: CYP isozymes (IC50s averaged over the isozymes); test: CYP Enzymatic Inhibition Assay in human liver microsomes
[8] = molecular target: hERG potassium channels (Homo sapiens (Human), UniProt Q12809); test: hERG Inhibition Assay (QPatch automated patch clamp, CHO cells); conditions: percent of control current
Chain of hERG potassium channels (Q12809 whole entry): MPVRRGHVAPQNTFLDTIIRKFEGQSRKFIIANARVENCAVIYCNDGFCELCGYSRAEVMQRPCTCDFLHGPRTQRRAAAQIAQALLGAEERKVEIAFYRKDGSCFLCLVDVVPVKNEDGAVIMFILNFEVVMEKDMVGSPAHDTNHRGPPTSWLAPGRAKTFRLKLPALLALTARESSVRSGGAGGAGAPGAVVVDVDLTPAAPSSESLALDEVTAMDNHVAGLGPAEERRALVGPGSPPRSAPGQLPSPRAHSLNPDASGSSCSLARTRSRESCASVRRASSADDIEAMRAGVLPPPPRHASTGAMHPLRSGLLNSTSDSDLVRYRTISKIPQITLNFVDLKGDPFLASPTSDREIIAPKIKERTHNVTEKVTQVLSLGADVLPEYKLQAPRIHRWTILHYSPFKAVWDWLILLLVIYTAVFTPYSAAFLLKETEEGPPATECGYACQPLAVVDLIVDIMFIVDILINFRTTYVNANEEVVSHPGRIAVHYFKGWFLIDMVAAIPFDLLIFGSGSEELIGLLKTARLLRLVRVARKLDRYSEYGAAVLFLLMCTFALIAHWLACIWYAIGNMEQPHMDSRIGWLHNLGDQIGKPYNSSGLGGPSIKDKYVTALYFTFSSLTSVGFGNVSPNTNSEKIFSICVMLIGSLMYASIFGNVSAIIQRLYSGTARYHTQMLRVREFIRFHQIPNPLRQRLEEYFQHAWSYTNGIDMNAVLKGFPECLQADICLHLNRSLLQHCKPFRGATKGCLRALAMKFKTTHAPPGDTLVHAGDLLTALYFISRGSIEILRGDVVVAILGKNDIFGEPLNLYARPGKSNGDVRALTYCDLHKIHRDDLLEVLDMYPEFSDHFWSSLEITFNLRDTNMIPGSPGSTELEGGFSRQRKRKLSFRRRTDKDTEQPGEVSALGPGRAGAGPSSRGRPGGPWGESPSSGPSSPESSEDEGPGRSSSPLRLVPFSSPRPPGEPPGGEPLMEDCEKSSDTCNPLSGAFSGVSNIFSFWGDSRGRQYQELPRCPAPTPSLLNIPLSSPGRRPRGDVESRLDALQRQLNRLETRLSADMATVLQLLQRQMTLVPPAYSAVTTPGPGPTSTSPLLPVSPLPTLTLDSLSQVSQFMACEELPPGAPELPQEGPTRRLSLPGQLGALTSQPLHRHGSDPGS

[9] = Compound Solubility Assay (kinetic solubility); format: physicochemical; conditions: kinetic from dmso stock
Protocol: The relative kinetic solubility of each compound was determined at both low (1.2) and neutral (7.4) pH. Compounds were prepared at 10 mM stocks. […] Compounds were allowed to shake at room temperature for 24 hours in 50 mM phosphate buffer pH 7.4, or in SGF buffer pH 1.2 at 37° C. for 24 hours.

Row | Compound | IC50 [1] [nM] | Ther Window [1] | IC50 [2] [nM] | half-life at 1 μM [3] [h] | Ki [4] [nM] | Ki [5] [nM] | Papp A→B at 2 h, 2 μM [6] [×10⁻⁶ cm/s] | IC50 at 10 min [7] [nM] | hERG [8] [%] | solubility kinetic at 24 h ([9]; 50 mM phosphate buffer, pH 7.4, aqueous buffer, read-out: KS7) [µM] | solubility kinetic at 24 h ([9]; simulated gastric fluid, kinetic solubility, SGF buffer pH 1.2, 37° C., 24 hours, read-out: KS1) [µM]
1 | Cc1nc2c(F)cc(-c3nc(Nc4ccc(CN5CCO[C@](C)(CCN)C5)cn4)ncc3F)cc2n1C(C)C [Compound A21, (R)—N-(5-((2-(2-aminoethyl)-2-methylmorpholino)methyl)pyridin-2-yl)-5-fluoro-4-(4-fluoro-1-isopropyl-2-methyl-1H-benzo[d]imidazol-6-yl)pyrimidin-2-amine] | 150 | 6.58 | 1000 | 1.61 | – | – | – | – | – | – | –
2 | Cc1nc2c(F)cc(-c3nc(Nc4ccc(CN5CCO[C@](C)(CCN6CC(F)C6)C5)cn4)ncc3F)cc2n1C(C)C [Compound A13] | 70 | 10.82 | 710 | 0.148 | 0.92 | 4.79 | 1.02 | 15200 | 23.72 | – | –
3 | Cc1nc2c(F)cc(-c3nc(Nc4ccc(CN5CCO[C@](C)(CCN6CCCC6)C5)cn4)ncc3F)cc2n1C(C)C [Compound A16, (R)-5-fluoro-4-(4-fluoro-1-isopropyl-2-methyl-1H-benzo[d]imidazol-6-yl)-N-(5-((2-methyl-2-(2-(pyrrolidin-1-yl)ethyl)morpholino)methyl)pyridin-2-yl)pyrimidin-2-amine] | 60 | 15.20 | 870 | 3.61 | 1.42 | 5.81 | 0.01 | 47900 | 18.09 | – | –
4 | Cc1nc2c(F)cc(-c3nc(Nc4ccc(CN5CCO[C@](C)(CCN6CC[C@@H](F)C6)C5)cn4)ncc3F)cc2n1C(C)C [Compound A15, 5-fluoro-4-(4-fluoro-1-isopropyl-2-methyl-1H-benzo[d]imidazol-6-yl)-N-(5-(((R)-2-(2-((R)-3-fluoropyrrolidin-1-yl)ethyl)-2-methylmorpholino)methyl)pyridin-2-yl)pyrimidin-2-amine] | 80 | 7.07 | 590 | 0.322 | 0.78 | 4.04 | 0.8 | 17100 | 17.46 | – | –
5 | Cc1nc2c(F)cc(-c3nc(Nc4ccc(CN5CCO[C@](C)(CCNCC(F)F)C5)cn4)ncc3F)cc2n1C(C)C [Compound A6, (R)—N-(5-((2-(2-((2,2-difluoroethyl)amino)ethyl)-2-methylmorpholino)methyl)pyridin-2-yl)-5-fluoro-4-(4-fluoro-1-isopropyl-2-methyl-1H-benzo[d]imidazol-6-yl)pyrimidin-2-amine] | 100 | 10.42 | 1000 | 0.237 | 0.83 | 5.35 | 1.12 | 14600 | 32.76 | – | –
6 | CC(=O)c1c(C)c2cnc(Nc3ccc(N4CCNCC4)cn3)nc2n(C2CCCC2)c1=O [Palbociclib, reference compound] | – | 9.37 | – | 0.915 | – | – | 0.27 | 97700 | – | 29.6 (≈ 13.2 µg/mL) | 196 (≈ 87.6 µg/mL)
7 | CC[C@@]1(CCN(C)C)CN(Cc2ccc(Nc3ncc(F)c(-c4cc(F)c5nc(C)n(C(C)C)c5c4)n3)nc2)CCO1 [Compound A20, (R)—N-(5-((2-(2-(dimethylamino)ethyl)-2-ethylmorpholino)methyl)pyridin-2-yl)-5-fluoro-4-(4-fluoro-1-isopropyl-2-methyl-1H-benzo[d]imidazol-6-yl)pyrimidin-2-amine] | 80 | 12.21 | 1000 | 1.68 | 0.55 | 3.69 | 0.07 | 24800 | 32.36 | – | –
8 | Cc1nc2c(F)cc(-c3nc(Nc4ccc(CN5CCO[C@](C)(CCN(C)CC(F)F)C5)cn4)ncc3F)cc2n1C(C)C [Compound A29, (R)—N-(5-((2-(2-((2,2-difluoroethyl)(methyl)amino)ethyl)-2-methylmorpholino)methyl)pyridin-2-yl)-5-fluoro-4-(4-fluoro-1-isopropyl-2-methyl-1H-benzo[d]imidazol-6-yl)pyrimidin-2-amine] | 170 | 5.36 | 890 | 0.0973 | 1.8 | 10.5 | 1.95 | 16400 | 25.45 | – | –
9 | Cc1nc2c(F)cc(-c3nc(Nc4ccc(CN5CCO[C@@]6(CCN(C)C6)C5)cn4)ncc3F)cc2n1C(C)C [Compound A39, (R)-5-fluoro-4-(4-fluoro-1-isopropyl-2-methyl-1H-benzo[d]imidazol-6-yl)-N-(5-((2-methyl-6-oxa-2,9-diazaspiro[4.5]decan-9-yl)methyl)pyridin-2-yl)pyrimidin-2-amine] | 300 | 3.25 | 980 | – | 1.83 | 6.62 | – | – | 14.81 | – | –
10 | CNCC[C@]1(C)CN(Cc2ccc(Nc3ncc(F)c(-c4cc(F)c5nc(C)n(C(C)C)c5c4)n3)nc2)CCO1 [Compound A5, (R)-5-fluoro-4-(4-fluoro-1-isopropyl-2-methyl-1H-benzo[d]imidazol-6-yl)-N-(5-((2-methyl-2-(2-(methylamino)ethyl)morpholino)methyl)pyridin-2-yl)pyrimidin-2-amine] | 180 | 5.33 | 960 | – | 1.21 | 6.26 | – | – | 14.76 | – | –
11 | Cc1nc2c(F)cc(-c3nc(Nc4ccc(CN5CCO[C@](C)(CCNC(C)(C)C)C5)cn4)ncc3F)cc2n1C(C)C [Compound A7, (R)—N-(5-((2-(2-(tert-butylamino)ethyl)-2-methylmorpholino)methyl)pyridin-2-yl)-5-fluoro-4-(4-fluoro-1-isopropyl-2-methyl-1H-benzo[d]imidazol-6-yl)pyrimidin-2-amine] | 160 | 5.75 | 920 | 1.24 | 1 | 4.24 | 0.04 | – | – | – | –
12 | Cc1nc2c(F)cc(-c3nc(Nc4ccc(CN5CCO[C@](C)(CCN6CC(C)(O)C6)C5)cn4)ncc3F)cc2n1C(C)C [Compound A10, (R)-1-(2-(4-((6-((5-fluoro-4-(4-fluoro-1-isopropyl-2-methyl-1H-benzo[d]imidazol-6-yl)pyrimidin-2-yl)amino)pyridin-3-yl)methyl)-2-methylmorpholin-2-yl)ethyl)-3-methylazetidin-3-ol] | 70 | 14.08 | 970 | 1.11 | 0.96 | 5.52 | 0.01 | – | – | – | –
